Measured values from publication PMC4117522, “Proteasome Inhibitors Alter Levels of Intracellular Peptides in HEK293T and SH-SY5Y Cells” (PLoS ONE, 2014).
Where “and” joins values, the source holds several entries; their conditions need not be identical. Equal entries are not always repeated. Residues, ends and D or L forms follow the SMILES beside them. *: point of attachment. Cbz = O=C(OCc1ccccc1)*

Experiments:
[1] = tested on: HEK293T cells; assay: Quantitative peptidomics (TMAB isotopic labels, LC-MS/MS) of inhibitor-treated HEK293T cells; assay type: cell-based, human; conditions: for change in levels of intracellular peptides (peptidome): HEK293T cells, 35 min, 2.5 µM MG132, 1 µM other inhibitors
Description: (§1) HEK293T and SH-SY5Y cells were grown to 80–90% confluence in DMEM and RPMI supplemented with 10% fetal bovine serum and penicillin/streptomycin. A single plate of cells (150 mm×25 mm) was used for each group. At the start of the experiment, media were removed from the plates and cells were washed with DPBS (138 mM NaCl, 8.06 mM Na2HPO4, 2.67 mM KCl, 1.47 mM KH2PO4, 0.9 mM CaCl2 and 0.49 mM MgCl2). This was followed by addition of serum-free media containing the proteasome or aminopeptidase inhibitors, or 0.05% DMSO as a control for the inhibitors that were soluble in DMSO. Each experiment consisted of two control groups and two or three replicate groups of cells treated with one of the inhibitors. The cells were incubated at 37°C for 20 minutes, following which media containing the inhibitor was removed, cells were washed with DPBS, detached from the plate by scraping into DPBS (without trypsin), and centrifuged at 800×g for 5 min. The wash buffer was supplemented with the appropriate inhibitor at the same concentration as used for the treatment, thereby ensuring that the changes induced in peptide levels were not reversed during harvesting of cells due to possible dissociation of the reversible inhibitors. The wash time (including centrifugation) was 15 minutes, for a total treatment time of 35 minutes. After centrifugation, the cell pellet was resuspended in 1 ml of 80°C water and incubated in an 80°C water bath for 20 minutes to inactivate proteases. The mixture was again centrifuged (13,000×g, 30 min, 4°C) and was stored at −80°C overnight. For peptide extraction, the samples were thawed and centrifuged again. The lysate was subsequently cooled on ice and acidified with HCl to a final concentration of 10 mM. After 15 min incubation on ice, the lysate was centrifuged at 13,000×g for 30 min at 4°C. To the supernatant, 250 µL of dibasic sodium phosphate (0.4 M, pH 9.5) was added and the mixture was stored at −80°C until labeling.
(§2) The labeling protocol has been earlier described in detail. Each group within an experiment (control/treated) was labeled with a different isotopic tag. The TMAB-NHS labels were dissolved in DMSO to a concentration of 400 µg/µL and 15 mg of label was used per 150 mm plate of cells. […] At the beginning, the pH of the peptide extract was adjusted to 9.5 with 1 M NaOH. Labeling was performed over 8 rounds; 4.69 µL of the label was added to the extract every 20 min. The pH was measured between each round and if necessary, brought back to 9.5 for the first five rounds. For rounds 6–8, the pH was not adjusted after the addition of the TMAB-NHS reagent. After the final round of label addition, the pH was adjusted to 9.5 again and the extracts were incubated at room temperature for 90 min. Thereafter, 30 µL of 2.5 M glycine was added to quench any unreacted label. Following 40 min incubation at room temperature, the labeled extracts for a single experiment were pooled and filtered through Amicon Ultracel-10 K units. It is important to ensure that only N-terminal amines and lysine side-chain amines of peptides are TMAB-labeled and not tyrosines. To hydrolyze any labeled tyrosine, 30 µL of a 2 M solution of hydroxylamine hydrochloride (pH 3.7) was added over three rounds to the pooled and filtered sample. The pH was measured after the addition of hydroxylamine and adjusted to 9.0 with 1 M NaOH. The samples were desalted through PepClean C-18 spin columns (Thermo Scientific, Rockford, IL, USA) by following manufacturer’s instructions. Peptides were eluted using 160 µL of 0.5% TFA and 70% acetonitrile, frozen at −80°C and then lyophilized in a vacuum centrifuge and stored at −80°C until analysis by mass spectrometry.
(§3) The LC-MS/MS experiments were performed on a Synapt G2 mass spectrometer coupled to a NanoAcquity capillary liquid chromatography system (Waters Co., Milford, MA, USA).

[2] = tested on: SH-SY5Y cells; assay: Quantitative peptidomics (TMAB isotopic labels, LC-MS/MS) of inhibitor-treated SH-SY5Y cells; assay type: cell-based, human
Description: as §1, §2, §3

## CC[C@H](C)[C@H](NC(=O)[C@H]([C@@H](C)CC)N(C)C(C)=O)C(=O)N[C@H](C(=O)N[C@@H](CC(C)C)C(=O)[C@@]1(C)CO1)[C@@H](C)O [Epox.]
[1]; 0.2 uM, 1h, HEK
  Relative Levels of peptide AAETVTKGGIMLPEKSQGKVLQA (HSPE1): < 0.20
  Relative Levels of peptide ADKVPKTAENFRAL (PPIA): < 0.20
  Relative Levels of peptide AGAAVDELGKVLTPTQV (PEBP1): < 0.20
  Relative Levels of peptide AKADGIVSKNF (RPS21): < 0.20
  Relative Levels of peptide APIKVGDAIPAVEVF (PRDX5): < 0.20
  Relative Levels of peptide APPTAYIDFARQK (TPI1): 0.58 and 0.64
  Relative Levels of peptide ASQPDVDGFLVGGASLKPEFVDIINA (TPI1): < 0.20
  Relative Levels of peptide ASQPDVDGFLVGGASLKPEFVDIINAKQ (TPI1): 1.17 and 1.09
  Relative Levels of peptide AVDGEPLGRVSF (PPIA): < 0.20
  Relative Levels of peptide Ac-AAPVDLELKKAFTEL (PFDN1): < 0.20
  Relative Levels of peptide Ac-ANLERTFIAIKPDGV (NME2): < 0.20
  Relative Levels of peptide Ac-ASKRALVIL (PARK7): < 0.20
  Relative Levels of peptide Ac-ASKRALVILA (PARK7): < 0.20
  Relative Levels of peptide Ac-MDTSRVQPIKL (RPS28): < 0.20
  Relative Levels of peptide Ac-MDTSRVQPIKLAR (RPS28): 0.95
  Relative Levels of peptide Ac-SSEEGKLFVGGLNF (RBM3): < 0.20
  Relative Levels of peptide Ac-SYGRPPPDVEGMTSLKVDNL (SRSF2): 0.23 and 0.32
  Relative Levels of peptide Ac-[…] (COX6B1): < 0.20
  Relative Levels of peptide EDENFILKHTGPGILSM (PPIA): < 0.20
  Relative Levels of peptide GAIRDIDL (SRSF1): 0.29 and 0.33
  Relative Levels of peptide GFGDLKSPAGLQVL (EEF1B2): < 0.20
  Relative Levels of peptide GISTPEELGLDKV (COX5A): < 0.20
  Relative Levels of peptide GVQVETISPGDGRTFPKRGQT (FKBP1A): 0.72 and 0.45
  Relative Levels of peptide KHTGPGILSM (PPIA): < 0.20
  Relative Levels of peptide PGIVELPTLEEL (NDUFA8): < 0.20
  Relative Levels of peptide SAMTEEAAVAIKAMAK (EIF5A): 0.36 and 0.21
  Relative Levels of peptide SLGELIGTLNA (TPI1): 0.29 and < 0.20
  Relative Levels of peptide VNPTVFFDI (PPIA): < 0.20
[1]; 2 uM, 1h, HEK
  Relative Levels of peptide AAETVTKGGIMLPEKSQGKVLQA (HSPE1): < 0.20
  Relative Levels of peptide ADKVPKTAENFRAL (PPIA): < 0.20
  Relative Levels of peptide AGAAVDELGKVLTPTQV (PEBP1): < 0.20
  Relative Levels of peptide AKADGIVSKNF (RPS21): < 0.20
  Relative Levels of peptide APIKVGDAIPAVEVF (PRDX5): < 0.20
  Relative Levels of peptide ASQPDVDGFLVGGASLKPEFVDIINA (TPI1): < 0.20
  Relative Levels of peptide ASQPDVDGFLVGGASLKPEFVDIINAKQ (TPI1): < 0.20
  Relative Levels of peptide AVDGEPLGRVSF (PPIA): < 0.20
  Relative Levels of peptide Ac-AAPVDLELKKAFTEL (PFDN1): < 0.20
  Relative Levels of peptide Ac-AEEGIAAGGVMDVNTALQEVLKT (RPS12): 0.61 and 0.42
  Relative Levels of peptide Ac-ANLERTFIAIKPDGV (NME2): < 0.20
  Relative Levels of peptide Ac-ASKRALVIL (PARK7): < 0.20
  Relative Levels of peptide Ac-ASKRALVILA (PARK7): < 0.20
  Relative Levels of peptide Ac-MDTSRVQPIKL (RPS28): < 0.20
  Relative Levels of peptide Ac-MDTSRVQPIKLAR (RPS28): 0.64 and 0.94
  Relative Levels of peptide Ac-MDTSRVQPIKLARVTKV (RPS28): < 0.20
  Relative Levels of peptide Ac-SSEEGKLFVGGLNF (RBM3): < 0.20
  Relative Levels of peptide Ac-SYGRPPPDVEGMTSLKVDNL (SRSF2): < 0.20
  Relative Levels of peptide EDENFILKHTGPGILSM (PPIA): < 0.20
  Relative Levels of peptide GESDDSILRLAKADGIVSKNF (RPS21): < 0.20
  Relative Levels of peptide GFGDLKSPAGLQVL (EEF1B2): 0.54 and 0.68
  Relative Levels of peptide GISTPEELGLDKV (COX5A): 0.38 and 0.45
  Relative Levels of peptide KHTGPGILSM (PPIA): < 0.20
  Relative Levels of peptide PGIVELPTLEEL (NDUFA8): < 0.20
  Relative Levels of peptide SAMTEEAAVAIKAMAK (EIF5A): < 0.20
  Relative Levels of peptide SLGELIGTLNA (TPI1): 0.52 and 0.30
  Relative Levels of peptide VNPTVFFDI (PPIA): < 0.20

## CC(=O)N[C@@H](CSC(=O)[C@]1([C@@H](O)C(C)C)NC(=O)[C@H](C)[C@@H]1O)C(=O)O [Lactacys]
[1]; 1 uM, 35', HEK
  Relative Levels of peptide AKADGIVSKNF (RPS21): 0.16 and 0.15
  Relative Levels of peptide Ac-ASKRALVIL (PARK7): < 0.20 and 0.26
  Relative Levels of peptide Ac-ASKRALVILA (PARK7): 0.29 and 0.31
  Relative Levels of peptide Ac-MDTSRVQPIKL (RPS28): 0.31 and 0.28
  Relative Levels of peptide Ac-MDTSRVQPIKLAR (RPS28): 0.52 and 0.70
  Relative Levels of peptide Ac-SSEEGKLFVGGLNF (RBM3): 0.39 and 0.30
  Relative Levels of peptide Ac-SYGRPPPDVEGMTSLKVDNL (SRSF2): 0.40 and 0.50
  Relative Levels of peptide GAIRDIDL (SRSF1): < 0.20
  Relative Levels of peptide GFGDLKSPAGLQVL (EEF1B2): 0.19 and 0.14
  Relative Levels of peptide GVQVETISPGDGRTFPKRGQT (FKBP1A): 0.31 and 0.26
  Relative Levels of peptide KHTGPGILSM (PPIA): 0.25 and 0.22

## CC(=O)N[C@@H](CSC(=O)[C@]1([C@@H](O)C(C)C)NC(=O)[C@H](C)[C@@H]1O)C(=O)O [Lactacystin]
[2]; 1 uM, 35', SH-SY5Y
  Relative Levels of peptide ADKVPKTAENFRAL (PPIA): < 0.20
  Relative Levels of peptide Ac-AAPVDLELKKAFTEL (PFDN1): < 0.20
  Relative Levels of peptide Ac-ASKRALVIL (PARK7): 0.25 and < 0.20 and 0.21
  Relative Levels of peptide Ac-ASKRALVILA (PARK7): 0.52 and 0.32 and 0.42
  Relative Levels of peptide Ac-MDTSRVQPIKL (RPS28): 0.47 and 0.49 and 0.51
  Relative Levels of peptide Ac-SSEEGKLFVGGLNF (RBM3): 0.55 and 0.38 and 0.49
  Relative Levels of peptide Ac-SYGRPPPDVEGMTSLKVDNL (SRSF2): 0.63 and 0.36 and 0.45
  Relative Levels of peptide GAIRDIDL (SRSF1): < 0.20
  Relative Levels of peptide KHTGPGILSM (PPIA): 0.26 and 0.24 and 0.25

## CC(C)C[C@@H](C=O)NC(=O)[C@H](CC(C)C)NC(=O)[C@H](CC(C)C)NC(=O)OCc1ccccc1 [MG132, reference compound] (Cbz-Leu-Leu-Leu-aldehyde)
[1]
  change in levels of intracellular peptides (peptidome): the majority of peptides was greatly decreased

## CC(C)C[C@H](NC(=O)[C@H](CCc1ccccc1)NC(=O)CN1CCOCC1)C(=O)N[C@@H](Cc1ccccc1)C(=O)N[C@@H](CC(C)C)C(=O)[C@@]1(C)CO1 [carfilzomib, reference compound]
[2]; SH-SY5Y cells, 35 min, 2.5 µM MG132, 1 µM other inhibitors
  change in levels of intracellular peptides (peptidome): decreased the levels of many peptides but also elevated levels of a number of other peptides
[1]
  change in levels of intracellular peptides (peptidome): decreased the levels of many peptides but also elevated levels of a number of other peptides
